ChEMBL document CHEMBL1201862, “PubChem BioAssay data set” (2004)
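These data come from cells grown in 96-well plates and exposed to compound for 48 hours at five concentrations. GI50 is the concentration that inhibits growth by half.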 Active and inactive are the calls of the source. No stated cut-off is given here; in the data, active = GI50 up to about 1.1 µM and inactive = higher.

Assays:
Assay in all cases: NCI tumour cell line growth inhibition, 48 h
[1] = test system: TK-10
[2] = test system: SF-539
[3] = test system: LOX IMVI
[4] = test system: SW-620
[5] = test system: NCI-H226
[6] = test system: DU-145
[7] = test system: HCC 2998
[8] = test system: SNB-75
[9] = test system: SR
[10] = test system: EKVX
[11] = test system: HOP-92
[12] = test system: HCT-116
[13] = test system: MDA-N
[14] = test system: NCI-H522
[15] = test system: HT-29
[16] = test system: OVCAR-4
[17] = test system: T47D
[18] = test system: Malme-3M
[19] = test system: SF-268
[20] = test system: IGROV-1
[21] = test system: MCF7
[22] = test system: OVCAR-8
[23] = test system: PC-3
[24] = test system: HCT-15
[25] = test system: SK-OV-3
[26] = test system: UO-31
[27] = test system: ACHN
[28] = test system: NCI-H460
[29] = test system: K562
[30] = test system: KM12
[31] = test system: NCI/ADR-RES
[32] = test system: UACC-257
[33] = test system: NCI-H23
[34] = test system: OVCAR-3
[35] = test system: SN12C
[36] = test system: BT-549
[37] = test system: SNB-19
[38] = test system: A498
[39] = test system: MDA-MB-435
[40] = test system: SK-MEL-28
[41] = test system: MDA-MB-231
[42] = test system: MOLT-4
[43] = test system: UACC-62
[44] = test system: CCRF-CEM
[45] = test system: M14
[46] = test system: COLO 205
[47] = test system: CAKI-1
[48] = test system: OVCAR-5
[49] = test system: SF-295
[50] = test system: RXF 393
[51] = test system: A549
[52] = test system: HOP-62
[53] = test system: 786-0
[54] = test system: HL-60
[55] = test system: U-251

`COc1ccc(C(O)c2ccc3c(c2)OCO3)cc1` (stereo not given) was tested, and the GI50 [1] was > 100 µM (inactive), the GI50 [2] was > 100 µM (inactive) and the GI50 [3] was > 100 µM (inactive). The GI50 [4] was > 100 µM (inactive), the GI50 [5] was > 100 µM (inactive) and the GI50 [6] was > 100 µM (inactive). The GI50 [7] was > 100 µM (inactive), the GI50 [8] was 1.94 µM (inactive) and the GI50 [9] was 25.6 µM (inactive). For the same molecule, the GI50 [10] was > 100 µM (inactive), the GI50 [11] was > 100 µM (inactive) and the GI50 [12] was > 100 µM (inactive). For the same molecule, the GI50 [13] was > 100 µM (inactive), the GI50 [14] was > 100 µM (inactive) and the GI50 [15] was > 100 µM (inactive). For the same molecule, the GI50 [16] was 67.6 µM (inactive), the GI50 [17] was 99.3 µM (inactive) and the GI50 [18] was > 100 µM (inactive). For the same molecule, the GI50 [19] was > 100 µM (inactive), the GI50 [20] was > 100 µM (inactive) and the GI50 [21] was > 100 µM (inactive). For the same molecule, the GI50 [22] was > 100 µM (inactive), the GI50 [23] was > 100 µM (inactive) and the GI50 [24] was > 100 µM. For the same molecule, the GI50 [25] was > 100 µM (inactive), the GI50 [26] was 74.1 µM (inactive) and the GI50 [27] was > 100 µM (inactive). The GI50 [28] was > 100 µM (inactive), the GI50 [29] was > 100 µM (inactive) and the GI50 [30] was > 100 µM (inactive). For the same molecule, the GI50 [31] was 65.6 µM (inactive), the GI50 [32] was > 100 µM (inactive) and the GI50 [33] was > 100 µM (inactive). For the same molecule, the GI50 [34] was > 100 µM (inactive), the GI50 [35] was > 100 µM (inactive) and the GI50 [36] was > 100 µM (inactive). For the same molecule, the GI50 [37] was > 100 µM (inactive), the GI50 [38] was > 100 µM (inactive) and the GI50 [39] was > 100 µM (inactive). For the same molecule, the GI50 [40] was > 100 µM (inactive), the GI50 [41] was > 100 µM (inactive) and the GI50 [42] was > 100 µM (inactive). The GI50 [43] was > 100 µM (inactive), the GI50 [44] was > 100 µM (inactive) and the GI50 [45] was > 100 µM (inactive). For the same molecule, the GI50 [46] was > 100 µM (inactive), the GI50 [47] was > 100 µM (inactive) and the GI50 [48] was > 100 µM (inactive). For the same molecule, the GI50 [49] was > 100 µM (inactive), the GI50 [50] was > 100 µM (inactive) and the GI50 [51] was > 100 µM (inactive). For the same molecule, the GI50 [52] was > 100 µM (inactive), the GI50 [53] was > 100 µM (inactive) and the GI50 [54] was > 100 µM (inactive). The GI50 [55] was > 100 µM (inactive).
